Reference: US11376261B2, “Methods for diagnosing and managing treatment of atopic dermatitis” (University of Cincinnati, priority 2017, dated 2022)
Like-named read-outs stand apart in the source and are kept apart here.

How the values were obtained:
AD skin lesions [1] = assay: Pre- vs post-treatment cutaneous gene expression, betamethasone and pimecrolimus (NCBI GEO GSE32473), overlap with 89ADGES; assay type: in vivo, human; conditions: application to AD skin lesions, Fold Change ≥2.0, p-value<0.05
Experimental: (§1) Pre- and post-treatment gene expression datasets have been retrieved from publicly accessible database NCBI GEO, including datasets related to three widely-used treatments for AD: betamethasone and pimecrolimus (NCBI GEO data GSE32473), and dupilumab 300 mg (NCBI GEO data GSE59294).
Members of 89ADGES that are differentially regulated due to the application of betamethasone to AD skin lesions. […] CCL18, MSMB, SERPINB3 and SERPINB4 genes are associated with multiple array IDs.
BTC, CCL18, MSMB, IL-37, SERPINB3 and SERPINB4 genes are associated with multiple array IDs.
(§2) FIG. 6 is a table showing expression of members of the ECZEMA55 gene panel compared to normal skin. Expression changes are due to different treatment options. Betamethasone, pimecrolimus, and dupilumab are shown. Note direction and magnitude of treatment-related expression change for each gene. Treatment inducing change in a direction opposite to that occurring in ECZEMA55 can drive treatment-associated health benefits.

atopic dermatitis [2] = assay: Symptom score of paired patient samples (pEASI reduction in GSE32473; pre-/post-treatment EASI in GSE59294); assay type: in vivo, human
Experimental: Gene expression data related to ECZEMA55 genes were extracted for pre- and post-treatment samples. Values were expressed as post-treatment/pre-treatment ratio. Variable selection or feature selection was performed by clustering of 55 genes into smaller number of coherent clusters and identifying the most representative gene per cluster. Representative genes were used to build a regression model which can be used to efficiently model the data. Outcome variable was defined either as the reduction in symptom score (available as per subject pEASI reduction; pEASI=partial EASI reduction in dataset GSE32473) or as the post-treatment symptom score (taking pre-treatment symptom score as an independent covariate and per subject pre-treatment symptom scores is available, as in the dataset GSE59294). A regression model was generated and regression trees were constructed. Classification/prediction and efficiency of the model were determined. Samples in Dupilumab dataset include GSE59294. […] We therefore added pre-treatment symptom score for analysis and for generating regression models

atopic dermatitis [3] = conditions: Dupilumab 300 mg, GSE59294, cited from earlier work; for EASI-POST: post-treatment; for EASI-PRE: pre-treatment
ECZEMA55 genes = assay: Quantitative RT-PCR of ECZEMA55 genes in pre- and post-treatment skin biopsy of an AD patient (Example 7); assay type: in vivo, human; conditions: one AD patient; 600 mg then two 300 mg s.c. injections over 4 weeks
Experimental: An AD patient comes to the clinic with severe itch and lesions on at least 45% of their body surface. Symptoms indicate a possible diagnosis of atopic dermatitis. They are not sufficiently controlled by topical treatments like pimecrolimus and betamethasone. The patient is advised to begin dupilumab treatment. Duplimumab is administered by subcutaneous injection at recommended dosing for adult patients, which is initially at a dose of 600 mg, followed by 300 mg administered every two weeks. The patient is given one 600 mg injection followed by two 300 mg injections over the course of 4 weeks. Pre- and post-treatment samples are collected and stored in RNA later solution (Invitrogen) at −80° C.
Pre- and post-treatment skin biopsy is performed using a minimally invasive disposable punch. The skin biopsy site is swabbed with isopropyl alcohol (70%) and anesthetized with local anesthetic (1 mL of 1% lidocaine+adrenaline). Using a punch biopsy needle, a 4 mm^2 full thickness skin biopsy from the lesion is obtained and stored in RNA later solution and sent to the diagnostic lab to perform RT-PCR assay.
RNA is isolated from the tissue and subjected to quantitative RT-PCR to compare the levels of expression of the ECZEMA55 genes of the patient's tissue to normal healthy skin. […] The treatment is assessed as effective and the patient is advised to receive further dupilumab treatment doses.

AD skin lesions [4] = assay: Pre- vs post-treatment cutaneous gene expression, dupilumab 300 mg (NCBI GEO GSE59294), overlap with 89ADGES; assay type: in vivo, human; conditions: administration of dupilumab 300 mg, Fold Change ≥2.0, p-value<0.05
Experimental: as §1
CCL18, IL-37, SERPINB3 and SERPINB4 genes are associated with multiple array IDs.
Samples in Dupilumab dataset include GSE59294.
as §2

Compound	Number of 89ADGES genes differentially regulated in treated biopsy samples compared to baseline pre-treatment condition (AD skin lesions [1]) [genes]	EASI-post/pre (atopic dermatitis [2]; Patient 1, Dupilumab 300 mg)	EASI-post/pre (atopic dermatitis [2]; Patient 2, Dupilumab 300 mg)	EASI-post/pre (atopic dermatitis [2]; Patient 3, Dupilumab 300 mg)	EASI-POST (atopic dermatitis [3]; Patient 1)	EASI-PRE (atopic dermatitis [3]; Patient 1)	EASI-POST (atopic dermatitis [3]; Patient 2)	EASI-PRE (atopic dermatitis [3]; Patient 2)	EASI-POST (atopic dermatitis [3]; Patient 3)	EASI-PRE (atopic dermatitis [3]; Patient 3)	Direction of ECZEMA55 gene expression change after treatment (ECZEMA55 genes)	Number of ECZEMA55 genes with expression changed compared to pre-treatment (ECZEMA55 genes)	Number of 89ADGES genes differentially regulated in treated biopsy samples compared to baseline pre-treatment condition (AD skin lesions [4]) [genes]
C[C@H]1C[C@H]2[C@@H]3CCC4=CC(=O)C=C[C@]4(C)[C@@]3(F)[C@@H](O)C[C@]2(C)[C@@]1(O)C(=O)CO [betamethasone]	45	–	–	–	–	–	–	–	–	–	–	–	–
CC[C@@H]1/C=C(\C)C[C@H](C)C[C@H](OC)[C@H]2O[C@@](O)(C(=O)C(=O)N3CCCC[C@H]3C(=O)O[C@H](/C(C)=C/[C@@H]3CC[C@H](Cl)[C@H](OC)C3)[C@H](C)[C@@H](O)CC1=O)[C@H](C)C[C@@H]2OC [pimecrolimus]	41	–	–	–	–	–	–	–	–	–	–	–	–
dupilumab: fully humanized monoclonal IgG4 antibody that inhibits IL-4 and IL-13 signaling by binding the IL-4Rα subunit	–	0.263	0.122	0.044	9.105	34.6	3.835	31.45	1.526	34.65	opposite to gene expression in AD disease state compared to healthy skin	about 30 genes	42
